Assay [1] relates to P. falciparum stage V female gametocytes (female gamete formation). The experiment in a line: P. falciparum dual gamete formation assay (Pf DGFA), female readout (Pfs25 expression), 48 h carry-over format. Conditions: primary screen, 2 uM, 48 h incubation, single replicate. In kind it is cell-based, Plasmodium falciparum NF54.
Assay [2] deals with P. falciparum stage V male gametocytes (male gamete formation). In words: P. falciparum dual gamete formation assay (Pf DGFA), male readout (exflagellation), 48 h carry-over format. The assay is classed as cell-based, Plasmodium falciparum NF54. Conditions: primary screen, 2 uM, 48 h incubation, single replicate.

Some results are limits rather than exact numbers.

Take `COc1cc(C)c(CN2CCC3(CC2)C(C(=O)O)CC(=O)N3C)cc1C` (centres unmarked) [DDD01258170]: the “%Inhibition Female @2uM” value in assay [1] amounted to 46.51%. The “%Inhibition Male @2uM” value in assay [2] is reported as less than 30%.

With `COc1cccc(S(=O)(=O)NC(=O)CC2CCCO2)c1` (centres unmarked) [DDD01295262], the “%Inhibition Female @2uM” value in assay [1] is given as 46.83%. In addition, in assay [2], the “%Inhibition Male @2uM” value is listed as less than 30%.

As to `Cc1nn(C)c(C)c1CCC(=O)N1CCCC(n2cccn2)C1` (centres unmarked) [DDD01296064], the “%Inhibition Female @2uM” value in assay [1] is given as less than 30%. Moreover, the “%Inhibition Male @2uM” value in assay [2] turned out to be 47.51%.

`Cc1cn2c(n1)CCC(NC(=O)Cn1cncn1)C2` (centres unmarked) [DDD01296301]: the “%Inhibition Female @2uM” value in assay [1] is listed as 57.78%. The “%Inhibition Male @2uM” value in assay [2] is reported as less than 30%.

Regarding `NC(=O)COc1ccc(C(=O)N2CCCC(n3ccnc3)C2)cc1` (centres unmarked) [DDD01296946], the “%Inhibition Female @2uM” value in assay [1] amounted to 40.74%. Besides, the “%Inhibition Male @2uM” value in assay [2] is listed as less than 30%.

For `Cc1cnn(CC2CCCN2Cc2nnc(C(C)C)o2)c1` (centres unmarked) [DDD01296988], the “%Inhibition Female @2uM” value in assay [1] turned out to be 33.35%. For the same compound, the “%Inhibition Male @2uM” value in assay [2] stood at 60.45%.

As for `CN(Cc1nnc(C2CC2)n1C)C1CCN(Cc2nccn2C)C1` (centres unmarked) [DDD01296990], the “%Inhibition Female @2uM” value in assay [1] is less than 30%. In addition, in assay [2], the “%Inhibition Male @2uM” value worked out at 57.47%.

Regarding `CCS(=O)(=O)N1CCC(NC(=O)c2cc(C)ccc2O)CC1` [DDD01297269], in assay [1], the “%Inhibition Female @2uM” value is reported as 56.83%. For the same compound, the “%Inhibition Male @2uM” value in assay [2] is recorded as less than 30%.

With `CC(C)CCc1nc(CNCC2CCCN2c2cccnn2)cs1` (centres unmarked) [DDD01297850], the “%Inhibition Female @2uM” value in assay [1] is reported as 39.30%. Besides, in assay [2], the “%Inhibition Male @2uM” value is listed as less than 30%.

For the compound `CCc1nnc2n1CCN(C(=O)c1nc(-c3ccco3)sc1C)C2` [DDD01298399], the “%Inhibition Female @2uM” value in assay [1] is on record as less than 30%. Besides, the “%Inhibition Male @2uM” value in assay [2] worked out at 30.87%.

Consider `CN1CCOC(CNCc2coc(-c3ccccc3Cl)n2)C1` (centres unmarked) [DDD01298713], for which, in assay [1], the “%Inhibition Female @2uM” value is given as less than 30%. The “%Inhibition Male @2uM” value in assay [2] worked out at 34.66%.

Regarding `O=C(c1ccc(-n2ccnc2)cc1)N1CCCC(n2ccnc2)C1` (centres unmarked) [DDD01298772], the “%Inhibition Female @2uM” value in assay [1] is reported as 36.32%. Moreover, the “%Inhibition Male @2uM” value in assay [2] is reported as less than 30%.

As to `Cc1cc(NC(=O)CN2CCc3cnc(C(C)C)nc3C2)on1` [DDD01298964], the “%Inhibition Female @2uM” value in assay [1] amounted to 41.23%. Further, the “%Inhibition Male @2uM” value in assay [2] is given as less than 30%.

With `Cc1cc(C)cc(OCCN2CCn3c(C)nnc3C2)c1` [DDD01299569], the “%Inhibition Female @2uM” value in assay [1] was determined as 31.60%. The “%Inhibition Male @2uM” value in assay [2] is less than 30%.

Consider `CCN1CCN(Cc2csc(C(C)C)n2)CC1` [DDD01301366], for which the “%Inhibition Female @2uM” value in assay [1] was less than 30%. Further, the “%Inhibition Male @2uM” value in assay [2] is 30.44%.

With `CC(C)COC(C)C(=O)NCc1ccc(-n2cncn2)nc1` (centres unmarked) [DDD01301486], the “%Inhibition Female @2uM” value in assay [1] came to 33.08%. Also, in assay [2], the “%Inhibition Male @2uM” value was less than 30%.

In the case of `COc1ccc(-c2nc(CNCCn3cccn3)cs2)cc1` [DDD01301541], the “%Inhibition Female @2uM” value in assay [1] is listed as 31.18%. For the same compound, in assay [2], the “%Inhibition Male @2uM” value is recorded as less than 30%.

In the case of `CC(CC(=O)NS(=O)(=O)c1ccc2c(c1)OCCO2)c1ccc(F)cc1` (centres unmarked) [DDD01301601], in assay [1], the “%Inhibition Female @2uM” value was found to be 38.27%. Moreover, the “%Inhibition Male @2uM” value in assay [2] is given as less than 30%.

With `c1cnc(-c2nc(CN3CCn4c(nnc4C4CC4)C3)cs2)nc1` [DDD01301615], the “%Inhibition Female @2uM” value in assay [1] is 32.48%. In addition, the “%Inhibition Male @2uM” value in assay [2] was less than 30%.

As for `Cc1nc(C)n(CC2CCCN(CCOc3cccc(C#N)c3)C2)n1` (centres unmarked) [DDD01302568], in assay [1], the “%Inhibition Female @2uM” value is recorded as less than 30%. The “%Inhibition Male @2uM” value in assay [2] was 85.34%.

For the compound `CCC(NC(=O)c1ccco1)c1ccccc1OCC(=O)N1CCCC1` (centres unmarked) [DDD01302666], the “%Inhibition Female @2uM” value in assay [1] is less than 30%. The “%Inhibition Male @2uM” value in assay [2] is 33.09%.

As to `CC(C)CCN(C)C(=O)c1nc(S(C)(=O)=O)n2ccccc12` [DDD01302801], the “%Inhibition Female @2uM” value in assay [1] is less than 30%. Further, the “%Inhibition Male @2uM” value in assay [2] was determined as 31.11%.

Values taken from publication PMC6143625, “A high throughput screen for next-generation leads targeting malaria parasite transmission” (Nature Communications, 2018).
